Measured values published in patent publication US10532053B2, “Histone deacetylase inhibitor, and preparation method and use thereof” (GUANGDONG ZHONGSHENG PHARMACEUTICAL CO., LTD, priority 2015, dated 2020).

Experiments:
Colon cancer HT29 = assay: Cell proliferative activity (MTT / cck-8); assay type: cell-based; settings: Homo sapiens, HT-29, read-out: Half-Inhibitory Concentration IC50 HT29
HDAC10 = HDAC10 (Homo sapiens, UniProt Q969S8); settings: read-out: IC50 HDAC10; Table 4, Class IIb
Procedure: The HDAC inhibitory activity was determined by fluorescence-coupled acetylated peptide substrate assay (Lys-Ac-AMC). HDAC1 protein was purchased from BPS Bioscience, and the reaction buffer system was a modified tris(hydroxymethyl)aminomethane buffer (pH 7.0). The small molecule compounds of the present invention were prepared by being dissolved in 100% DMSO. HDAC was prepared in a buffer at a certain concentration as an enzyme solution; trypsin and fluorescent group 4-amino-7-coumarin coupled-acetylated peptide (Ac-peptide) substrate were prepared in a buffer at a certain concentration as a substrate solution. The compounds were added into the reaction wells in a 384-well plate at a designed concentration of 10 μM, 1 μM, 0.5 μM, 0.1 μM, 0.05 μM, 0.01 μM, 0.005 μM, 0.001 μM, and 0.00005 μM, respectively, and then 15 μl of the HDAC solution was added into the reaction wells (15 μl of blank buffer to the control well). […] The results were analyzed by GraphPad Prism software and IC50 values were calculated according to the formula: Y=Background Data+(Top Data−Background Data)/(1+10^((Log IC50−X) a curve slope)), where Y: the inhibition rate (%) and X: the concentration of the compound.

Colon cancer HCT116 = assay: Cell proliferative activity (MTT / cck-8); assay type: cell-based; settings: Homo sapiens, HCT-116, read-out: Half-Inhibitory Concentration IC50 HCT116
[1] = system: Human lung cancer cell H460; assay: Cell proliferative activity (MTT / cck-8); assay type: cell-based; settings: NCI-H460, Lung cancer, Table 5, read-out: Half-Inhibitory Concentration IC50 H460
Procedure: (§1) Tumor cell line A375: human melanoma cell; H460: lung adenocarcinoma cell; Hela: human cervical cancer cell; HepG2: human liver cancer cell; and SKOV-3: human ovarian cancer cell, were all purchased from ATCC and cultured to logarithmic phase according to the cultivation protocol recommended by ATCC. The cells in the logarithmic phase were plated onto a 96-well plate at 2000-3000 cells/well; in the case of adherent cells, the cells should be adherent to the wall. […] After that, the cell proliferative activity was determined by MTT assay for the tumor cells representing the solid tumor model and by cck-8 assay for the tumor cells representing the hematologic tumor model.

Multiple myeloma U266 = assay: Cell proliferative activity (MTT / cck-8); assay type: cell-based; settings: Homo sapiens, U-266, read-out: Half-Inhibitory Concentration IC50 U266
Procedure: as §1

[2] = system: Human liver cancer cell HepG2; assay: Cell proliferative activity (MTT / cck-8); assay type: cell-based; settings: Liver cancer, Table 5, read-out: Half-Inhibitory Concentration IC50 HepG2
Procedure: as §1

B-cell lymphoma Ramos = assay: Cell proliferative activity (MTT / cck-8); assay type: cell-based; settings: Homo sapiens, read-out: Half-Inhibitory Concentration IC50 Ramos
Procedure: as §1

[3] = system: Human ovarian cancer cell SKOV-3; assay: Cell proliferative activity (MTT / cck-8); assay type: cell-based; settings: SK-OV-3, Ovarian cancer, Table 5, read-out: Half-Inhibitory Concentration IC50 SKOV-3
Procedure: as §1

Leukemia MV4-11 = assay: Cell proliferative activity (MTT / cck-8); assay type: cell-based; settings: Homo sapiens, read-out: Half-Inhibitory Concentration IC50 MV4-11
Procedure: as §1

[4] = system: Human cervical cancer cell Hela; assay: Cell proliferative activity (MTT / cck-8); assay type: cell-based; settings: Cervical cancer, Table 5, read-out: Half-Inhibitory Concentration IC50 Hela
Procedure: as §1

Leukemia K562 = assay: Cell proliferative activity (MTT / cck-8); assay type: cell-based; settings: Homo sapiens, read-out: Half-Inhibitory Concentration IC50 K562
Procedure: as §1

[5] = system: Multiple myeloma RPMI8226; assay: Cell proliferative activity (MTT / cck-8); assay type: cell-based; settings: Homo sapiens, RPMI-8226, read-out: Half-Inhibitory Concentration IC50 RPMI8226
Procedure: as §1

Ovarian cancer A2780s = assay: Cell proliferative activity (MTT / cck-8); assay type: cell-based; settings: Homo sapiens, read-out: Half-Inhibitory Concentration IC50 A2780s
Breast cancer SKBR3 = assay: Cell proliferative activity (MTT / cck-8); assay type: cell-based; settings: Homo sapiens, SK-BR-3, read-out: Half-Inhibitory Concentration IC50 SKBR3
HBL-1 cells = assay: Therapeutic effect on the B-cell lymphoma HBL-1 subcutaneous tumor model; assay type: in vivo, NOD/SCID mice; settings: HBL-1 model, 40 mg/kg intragastrically once every other day, 9 times; vs solvent group
Lung cancer A549 = assay: Cell proliferative activity (MTT / cck-8); assay type: cell-based; settings: Homo sapiens, read-out: Half-Inhibitory Concentration IC50 A549
Ramos cells = assay: Therapeutic effect on the B-cell lymphoma Ramos subcutaneous tumor model; assay type: in vivo, NOD/SCID mice; settings: 40 mg/kg intragastrically once every other day, 6 times, vs solvent group
[6] = system: acetylation level of HDAC substrate (Ac-α-tubulin, Ac-H3); assay: Western blot assay for detecting the level of acetylated proteins; assay type: cell-based; settings: HCT116 cells (FIG. 3) or MV4-11 cells (FIG. 4)
Procedure: The compounds or the positive control compound were added into each group of cells already adherent to the walls (2×10^6 HCT116 cells or 5×10^6 MV4-11 cells) at a designed concentration. After treatment for 4 hours, trypsin was added for digestion, followed by collecting the cells. After washing with cold PBS twice, the cells were lysed by adding RIPA lysis solution (which was purchased from Beyotime, Art. No.: P0013B, adding 1 mM PMSF before use), allowing for lysis on ice for 30 minutes while vortexing at intervals. The lysate was subjected to ultrasonic treatment on an ice bath (ultrasonicated for 3 seconds and repeated 5 times for each group at an interval of 10 seconds). The supernatant was collected by centrifugation at 12,000 g for 20 min at 4° C. and then mixed the SDS-PAGE loading buffer (purchased from Beyotime, Art. No.: P0015F). The mixture was heated in boiling water for 5 minutes to obtain a protein sample. The protein concentration of the sample was quantified by BCA method. 20 […] total protein from each group was subjected to 15% SDS-PAGE electrophoresis, and 5μl of a pre-stained protein marker (purchased from Thermo, Art. No.: 26616) was loaded to an additional selective lane in order to compare protein molecular weights as well as to detect the transmembrane result. When the bromophenol blue bands ran close to the bottom of the gel, the electrophoresis was terminated and the proteins on the gel were transferred to a PVDF membrane at a pore size of 0.22 μm. After 1.5 hours of transmembrane at a constant current of 200 mA, the PVDF membrane was removed and blocked in 5% skimmed milk for 1 hour. After completion of blocking, the membrane was incubated with the primary antibody (Ac-H3 antibody was purchased from Santa Cruz, Art. No.: sc-56616; Ac-α-tubulin antibody was purchased from Santa Cruz, Art. No.: sc-23950) overnight at 4° C. and then washed with TBS/T for 10 minutes for 3 times. The membrane was incubated with the horseradish peroxidase-coupled secondary antibody at room temperature for 1 hour, and then washed with TBS/T for 10 minutes for 3 times. After washing with TBS for 5 minutes, the membrane was exposed and developed by using a film in the darkroom. The detected GAPDH protein was an internal reference protein (GAPDH antibody was purchased from ZSGB-Bio, Art. No.: TA-08).

A2780s cells = settings: A2780s model, 100 mg/kg intragastrically once every other day, 16 times
[7] = clinical data; cited from earlier work

Sequence of HDAC10 (Q969S8 whole entry): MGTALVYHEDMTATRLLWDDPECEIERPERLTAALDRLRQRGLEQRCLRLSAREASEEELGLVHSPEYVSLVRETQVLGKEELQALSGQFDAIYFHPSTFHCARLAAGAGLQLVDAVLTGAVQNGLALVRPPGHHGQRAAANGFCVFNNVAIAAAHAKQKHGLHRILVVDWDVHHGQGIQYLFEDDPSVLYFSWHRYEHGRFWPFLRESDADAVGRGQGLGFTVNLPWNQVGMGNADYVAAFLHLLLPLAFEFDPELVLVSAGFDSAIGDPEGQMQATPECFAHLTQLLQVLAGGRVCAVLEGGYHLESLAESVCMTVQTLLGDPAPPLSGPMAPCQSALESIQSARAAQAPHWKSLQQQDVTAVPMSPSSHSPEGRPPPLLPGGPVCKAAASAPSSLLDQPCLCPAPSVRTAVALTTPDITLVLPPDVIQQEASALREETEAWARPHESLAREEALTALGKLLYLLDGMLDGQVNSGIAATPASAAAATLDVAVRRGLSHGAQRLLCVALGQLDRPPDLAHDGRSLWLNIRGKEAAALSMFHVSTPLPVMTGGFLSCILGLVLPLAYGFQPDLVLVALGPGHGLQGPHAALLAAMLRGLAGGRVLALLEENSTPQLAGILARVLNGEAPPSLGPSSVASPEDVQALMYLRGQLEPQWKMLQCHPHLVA

O=C(CCCCCCNC(=O)c1cnc(N(c2ccccc2)c2ccccc2)nc1)NO [ACY-1215, reference compound]
IC50 (Colon cancer HT29): > 5 µM
IC50 (HDAC10): 0.194 ± 0.054 µM
IC50 (Colon cancer HCT116): > 5 µM
IC50 [1]: > 5 µM
IC50 (Multiple myeloma U266): > 5 µM
IC50 [2]: > 5 µM
IC50 (B-cell lymphoma Ramos): > 5 µM
IC50 [3]: > 5 µM
IC50 (Leukemia MV4-11): > 5 µM
IC50 [4]: > 5 µM
IC50 (Leukemia K562): > 5 µM
IC50 [5]: 1.47 ± 0.31 µM
IC50 (Ovarian cancer A2780s): > 5 µM
IC50 (Breast cancer SKBR3): > 5 µM
tumor inhibitory rate (HBL-1 cells): 26.75%
IC50 (Lung cancer A549): > 5 µM
tumor inhibitory rate (Ramos cells): no inhibitory effects of tumor growth

O=C(CCCCCCC(=O)Nc1ccccc1)NO [SAHA, reference compound]
acetylation of H3 (Ac-H3) [6]: up-regulate acetylation of tubulin and H3
acetylation of α-tubulin [6]: up-regulate acetylation of tubulin and H3
death of mice during the experiment (A2780s cells): one mouse died
toxic side effects [7]: thrombosis and neurotoxicity
